Active and inactive are the calls of the source.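 How the source made its calls: active means inhibition of at least 30% at one or more tested concentrations; inactive means inhibition below 30% at every dose.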
Assay: antiviral protection against BTV-induced cell death – arbovirus, BSR cells, confirmation (AID 1250)
Conditions: BSR cells, Bluetongue virus CPE, ATP luminescence, 72 h; at 20 µM (top of the series)

Structure (SMILES)	CPE inhibition
C(=N\Nc1nc(-c2ccccc2)cs1)/c1ccco1	20.9% (inactive)
N#Cc1c(NC(=O)C2CC(Cl)=CCC2C(=O)O)sc2c1CCCCC2 (stereo not given)	17.1% (inactive)
CCCCN(CCCC)CC(O)COc1ccccc1Br (stereo not given)	15.3% (inactive)
COc1ccc(CN(C(=O)c2oc3ccccc3c2C)C2CCS(=O)(=O)C2)cc1OC (stereo not given)	18.3% (inactive)
O=C(CSc1ncn(-c2ccccc2)n1)Nc1nc2ccccc2s1	10.5% (inactive)
COCCn1c(-c2ccc(Cl)cc2)cnc1SCC(=O)NCc1cccs1	18.9% (inactive)
CCOC(=O)c1ccc(NC(=S)N2CCSC2c2c(F)cc(F)cc2F)cc1 (stereo not given)	11.8% (inactive)
CS(=O)(=O)C1=NSC2=NC(=O)/C(=C\c3cccn3-c3ccccc3Cl)C(=N)N21	8.16% (inactive)
CSc1ncc(Cl)c(C(=O)C(C#N)c2nc3c(C)cc(C)cc3c(=O)[nH]2)n1 (stereo not given)	20.1% (inactive)
O=C/C(=C\Nc1ccc(Cl)cn1)c1nc2cc(Cl)ccc2o1	10.2% (inactive)
O=C(CCCN1C(=O)/C(=C/c2cccs2)SC1=S)Nc1cccc(C(=O)O)c1	1.7% (inactive)
CCOc1cccc(C(=O)Nc2ccccc2N2CCN(C(=O)C(C)C)CC2)c1	9.61% (inactive)
COc1ccc2nc(NC(=O)C3=NN(c4ccccc4)C(=O)CC3)sc2c1	-2.13% (inactive)
O=C(CSCc1ccccc1)Nc1cccc(C(=O)Nc2ccccc2C(=O)O)c1	9.16% (inactive)
COC(=O)c1ccccc1N/C=C/C(=O)c1ccc(Br)cc1	28.6% (inactive)
O=C(CSc1ccccc1)Nc1cc(Cl)ccc1Oc1ccccc1	3.1% (inactive)
Cc1ccc(N2C(=O)C3CC(c4ccccc4)=C4C5C=CC(C6C(=O)N(c7ccc(C)cc7)C(=O)C56)C4C3C2=O)cc1 (stereo not given)	11.8% (inactive)
CCOC(=O)CC1=NS(=O)(=O)c2ccccc2N1	2.01% (inactive)
Cc1cc(C)c(NC(=O)c2oc3ccccc3c2COc2ccccc2)c(C)c1	5.41% (inactive)
O=C(Nc1ccccc1C(=O)O)c1ccc(Br)c(S(=O)(=O)NCc2ccccc2)c1	21.6% (inactive)
CC(C)(C)C1CCc2c(sc(NC(=O)C3CC=CCC3C(=O)O)c2C#N)C1 (stereo not given)	26.8% (inactive)
CN(C)Cc1c(O)c(Cl)cc2c3c(c(=O)oc12)CCCC3	-0.25% (inactive)
COc1ccc(-c2noc(-c3ccccc3-c3ccccc3)n2)cc1OC	10.8% (inactive)
O=C(Nc1nc(-c2ccccc2)cs1)c1ccc(=O)[nH]c1	12% (inactive)

Structure (SMILES)	CPE inhibition
O=C(CSc1ncn[nH]1)Nc1nc(-c2ccccc2)ns1	6.55% (inactive)
CCOC(=O)c1csc(NC(=O)CC2CCCC2)n1	6.07% (inactive)
N#Cc1ccccc1NC(=O)c1ccccc1OCC(=O)NCc1ccco1	6.97% (inactive)
CCCc1cc2c(OC(=O)CC)c(-c3ccc(C(=O)OCC)o3)c(=O)oc2cc1OC	19.6% (inactive)
O=C(NC1=NCCS1)c1ccc(Cl)c(S(=O)(=O)N2CCCC2)c1	12.3% (inactive)
CCCCN(CC)C(=O)CSc1nc2c(sc(=S)n2-c2ccc(OCC)cc2)c(=O)[nH]1	18.4% (inactive)
Cc1cccc(Sc2nc(-c3ccccc3)ncc2C(=O)O)c1	7.57% (inactive)
Cc1cc(C(=O)CSc2nnc(-c3ccco3)o2)c(C)n1Cc1ccco1	2.98% (inactive)
CCSc1nnc(NC(=O)c2ccc(Br)s2)s1	16.8% (inactive)
COc1ccc(S(=O)(=O)N/N=C(/C)c2cccc(NC(=O)c3ccccc3Cl)c2)cc1	15% (inactive)
COc1ccc(C)cc1NC(=O)C1COc2ccccc2O1 (stereo not given)	11.1% (inactive)
Cc1ccc(Nc2nc(N)c([N+](=O)[O-])c(N3CCOCC3)n2)cc1C	11.3% (inactive)
CCc1cc2c(=O)c(-c3cscn3)coc2c(CN(C)C)c1O	5.92% (inactive)
OCCNc1nc(Nc2ccccc2)nc2ccccc12	15.3% (inactive)
O=C1CC(=O)N(Cc2ccco2)C(=O)N1	2.11% (inactive)
CSc1ccccc1NC(=O)CO/N=C(\C)c1cc2ccccc2o1	12.9% (inactive)
O=C(O)c1cnc(-c2ccccc2)nc1Sc1ccccc1Cl	11.8% (inactive)
COc1ccc(Cl)cc1NC(=O)C1COc2ccccc2O1 (stereo not given)	26.3% (inactive)
Nc1c(-c2ccccc2)c(CSc2nc3ccccc3[nH]2)nn1-c1cccc(Cl)c1	23.8% (inactive)
O=C(O)c1cnc(-c2ccccc2)nc1Sc1ccc(Cl)cc1	15.2% (inactive)
CC(C)CSC1=NSC2=NC(=O)/C(=C\c3cccs3)C(=N)N12	28.6% (inactive)
COc1cccc(C2CC(c3ccc(Cl)cc3Cl)Nc3nc(N)nn32)c1 (stereo not given)	2.82% (inactive)
CC(C)(CO)CNC(=O)CC1C(=O)NCCN1CC(c1ccccc1)c1ccccc1 (stereo not given)	1.48% (inactive)
Cc1nc(CNS(=O)(=O)c2cccnc2)cs1	4.68% (inactive)

Structure (SMILES)	CPE inhibition
CC1CC(C)(C)CC2(C1)NC(=O)N(CC(=O)NCCc1c[nH]c3ccccc13)C2=O (stereo not given)	23.6% (inactive)
CCC(C)Sc1nc2c(c(=O)[nH]1)C(c1cccs1)C1=C(CCCC1=O)N2 (stereo not given)	10.1% (inactive)
Cc1ccc(NC2c3ncccc3C(=O)N2C2CCCCC2)cc1C (stereo not given)	12.7% (inactive)
O=c1oc(-c2ccccc2NS(=O)(=O)c2ccc3ccccc3c2)nc2ccccc12	10.9% (inactive)
COc1ccc(C2=Nn3c(nnc3-c3ccncc3)SC2)cc1OC	20.1% (inactive)
CC(=O)Nc1ccc(NC(=O)COc2ccccc2C(=O)Nc2cccc(Cl)c2Cl)cc1	15% (inactive)
Cc1ccc(C)c(N2CCN(C(=O)Cc3ccc(-n4c(=O)[nH]c5ccsc5c4=O)cc3)CC2)c1	13.2% (inactive)
CCCc1cc(=O)[nH]c(SCC(=O)NC)n1	-0.15% (inactive)
CCOC(=O)c1ccc(NC(=O)Cn2nnc(-c3ccccc3)n2)cc1	12.9% (inactive)
O=Cc1ccc(OCc2ccccn2)cc1	2.77% (inactive)
COc1ccc(OC)c(/C=N\NC(=O)CC(=O)NCCc2ccccc2)c1	-1.6% (inactive)
CCc1nn2cc(C(=O)c3ccccc3O)cnc2c1-c1ccc(F)cc1	14.2% (inactive)
CCOC(=O)C(NC(=O)c1cccc(Cl)c1)(OCc1ccc(F)cc1)C(F)(F)F (stereo not given)	-3.2% (inactive)
COc1cc2c(cc1NC(=O)CC1SC(N3CCCC3)=NC1=O)oc1ccccc12 (stereo not given)	13.7% (inactive)
CCOC(=O)CSc1nc2c(sc(=S)n2-c2ccc(OCC)cc2)c(=O)[nH]1	19.1% (inactive)
O=C(Nc1nc2ccccc2s1)c1ccc(N2CCCCC2)c([N+](=O)[O-])c1	22.1% (inactive)
CN(C)/N=C/c1ccc(P(c2ccc(/C=N/N(C)C)o2)c2ccc(/C=N/N(C)C)o2)o1	10.4% (inactive)
Cc1ccc(NC(=O)c2cncc(Br)c2)c(O)c1	13.8% (inactive)
COC(=O)c1ccccc1NC(=O)c1ccc(COc2ccc(C)c(C)c2)o1	27.6% (inactive)
O=C(c1ccc2ccccc2n1)N1CCN(c2ccccc2Cl)CC1	8.76% (inactive)
Cc1ccc(S(=O)(=O)N2CCN(c3ccnc4cc(Cl)ccc34)CC2)cc1C	10.9% (inactive)
CCN(Cc1ccncc1)Cc1c(O)ccc2cc(Br)ccc12	8.02% (inactive)
C=CCc1cccc2cc(C(=O)Nc3ccccc3C(=O)O)c(=O)oc12	17.4% (inactive)
O=C1N=c2ccccc2=C1c1sc(Nc2ccc(O)cc2)nc1O	14.8% (inactive)

Structure (SMILES)	CPE inhibition
COCCn1c(SC(C)C(=O)Nc2ncc(Cl)cc2Cl)nc2ccccc21 (stereo not given)	21% (inactive)
Cc1ccc(C(=O)Nc2ccccc2SCC2CSc3nc4ccccc4c(=O)n32)cc1 (stereo not given)	14.6% (inactive)
CSC1=NSC2=NC(=O)/C(=C\c3cccs3)C(=N)N12	16% (inactive)
CCCC1=NN2C(=N)/C(=C\c3cc(C)n(-c4cccc(C)c4)c3C)C(=O)N=C2S1	24% (inactive)
CCN=c1scc(C)n1/N=C/c1cc(Br)c(O)c(Br)c1	-2.38% (inactive)
O=C(C1CC1)N1CCN=C1SCc1ccc(Cl)cc1	0% (inactive)
CCOc1ccc(-n2c(=S)sc3c(=O)[nH]c(SCC(=O)C(C)(C)C)nc32)cc1	7.23% (inactive)
Cc1ccc(C(=O)O)cc1-c1ccc(/C=C2/NC(=O)N(c3ccccc3)C2=O)o1	19.9% (inactive)
COc1ccc(Cn2c(C)c(C)c(C#N)c2NC(=O)Nc2cccc(Cl)c2)cc1	10.6% (inactive)
O=C1CN(C(=O)/C=C/c2ccc(Cl)cc2)c2ccccc2N1	7.62% (inactive)
COCCn1c(SCC(=O)Nc2cc(Cl)ccc2OC)nc2c(c1=O)SC(C)C2 (stereo not given)	17.7% (inactive)
Cc1nnc2sc(SCc3cccc(Cl)c3)nn2c1=O	14.2% (inactive)
COC(=O)c1c(SCc2ccc(C#N)cc2)nc(=O)[nH]c1C	4.66% (inactive)
CN(Cc1ccccc1)c1nc(N)c([N+](=O)[O-])c(NCc2ccccc2)n1	-7.95% (inactive)
COc1ccccc1/C=C/C=C1N=C(/C=C/c2ccc(Cl)cc2)OC/1=O	25.2% (inactive)
O=C(NC(=S)NCCC1=CCCCC1)c1ccccc1Br	28.5% (inactive)
CCCCn1c(SCc2cccc([N+](=O)[O-])c2)nc2ccsc2c1=O	3.1% (inactive)
O=c1[nH]c(SCc2ccccc2)nnc1-c1ccccc1	3.2% (inactive)
N#C/C(=C\c1cc2ccccc2nc1N1CCCCC1)C(N)=O	22.5% (inactive)
COC(=O)[C@H](Cc1ccccc1)NC(=O)O[C@@H]1C(=O)c2cc(OC)ccc2O[C@H]1c1ccc(OC)c(Br)c1	13.7% (inactive)
N#Cc1c2n(c3c(=S)nc[nH]c13)CCCCC2	9.66% (inactive)
O=[N+]([O-])c1ccc(-c2c(O)c3ccccc3c3nc4ccccc4nc23)cc1	25.8% (inactive)
COc1ccc(-c2nc(C3CCCCC3)no2)cc1OC	8.02% (inactive)

From PubChem BioAssay AID1250 (SRMLSC, 2008)
